How the values were obtained:
Assay in all cases: Cell proliferation assay (CellTiter 96 Aqueous One)
Assay type in all cases: cell-based
[1] = test system: SW-620 colorectal cancer cell line (KRAS G12V); conditions: Homo sapiens; SW-620, 2-4 days, 10% FBS
Procedure, shortened: (§1)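 Percent inhibition of proliferation is derived from MTS absorbance data. Cells seeded at 2000–5000 per well were grown overnight before treatment. Compounds, at 10 μM final or in dilution series, stayed on cells for 2–4 days in medium containing 10% FBS and 0.3% DMSO.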

[2] = test system: A-549 NSCLC cell line (KRAS G12S); conditions: Homo sapiens; A549, 2-4 days, 10% FBS
Procedure, shortened: as §1

[3] = test system: PANC-1 pancreatic cancer cell line (KRAS G12D); conditions: Homo sapiens; PANC-1, 2-4 days, 10% FBS
Procedure, shortened: as §1

| Compound | IC50 [1] | IC50 [2] | IC50 [3] |
| --- | --- | --- | --- |
| COCC1CCN(c2nc(-c3nccn3C)nc3sc(-c4ccn(C(C)C)n4)c(C)c23)C1 (racemic) [Compound 38, rac-6-(1-Isopropyl-1H-pyrazol-3-yl)-4-(3-(methoxymethyl)pyrrolidin-1-yl)-5-methyl-2-(1-methyl-1H-imidazol-2-yl)thieno[2,3-d]pyrimidine] | 0.75 to 1 µM | 0.75 to 1 µM | 0.75 to 1 µM |
| COC[C@@H]1CC[C@@H]1CNc1nc(-c2nccn2C)nc2sc(-c3ccn(C(C)C)n3)c(C)c12 (racemic) [Compound 63, rac-6-(1-Isopropyl-1H-pyrazol-3-y)-N-(((1S,2R)-2-(methoxymethyl)cyclobutyl)methyl)-5-methyl-2-(1-methyl-1H-imidazol-2-yl)thieno[2,3-d]pyrimidin-4-amine] | < 0.4 µM | 0.4 to 0.75 µM | 0.4 to 0.75 µM |
| CO[C@@H]1CC[C@H](Nc2nc(-c3nccn3C)nc3sc(-c4ccn(C(C)C)n4)c(-c4ccccc4)c23)C1 [Example 4, 6-(1-isopropyl-1H-pyrazol-3-yl)-N-((1S,3R)-3-methoxycyclopentyl)-2-(1-methyl-1H-imidazol-2-yl)-5-phenylthieno[2,3-d]pyrimidin-4-amine] | 0.4 to 0.75 µM | 0.4 to 0.75 µM | < 0.4 µM |
